The source of these data is patent publication US10253002B2, “Compounds and methods of treating infections” (Neoculi Pty Ltd., priority 2013, dated 2019).

Values joined by “and” are separate entries in the source; they are usually repeats but may differ in a detail not shown here. Equal entries are not always repeated.

One assay deals with Escherichia coli. Description: Broth microdilution MIC, Example 7 (NCL812 and analogues). The class given is cell-based. Particulars: E. coli; 24 hours; duplicate lines per compound. (In general: Dilution methods test growth across graded concentrations, often in twofold steps.)
Take `Cl.N=C(N/N=C/c1ccc(Cl)cc1)N/N=C/c1ccc(Cl)cc1Cl` [NCL074]: the “MIC (μg/ml) at 24 hours, E. coli” value is more than 128 µg/mL.
On the same count and under the same terms, the value for `C/C(=N\NC(=N)N/N=C/c1ccc(Cl)cc1)c1ccc(Cl)cc1.Cl` [NCL081] was more than 128 µg/mL; that for `Cl.N=C(N/N=C/c1ccc(Cl)cc1)N/N=C/c1ccccc1Cl` [NCL082] was more than 128 µg/mL; that for `Cl.N=C(NN=Cc1ccc(Cl)cc1)NN=Cc1ccccc1F` [NCL088] was more than 128 µg/mL.
The same measure, in the same setting: the value for `Cl.N=C(N/N=C/c1ccccc1O)N/N=C/c1ccccc1O` [NCL107] was more than 128 µg/mL.
Take `CN(C)c1ccc(C=NNC(=N)NN=Cc2ccc(N(C)C)cc2)cc1.Cl` [NCL113]: the “MIC (μg/ml) at 24 hours, E. coli” value was more than 128 µg/mL.

The next assay deals with MRSA. The assay is described as above. It counts as cell-based, Staphylococcus aureus. The note with it: MIC testing, two MRSA strains. A digest of the protocol: (§1)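 Turbidity read visually and then at 600 nm defined the MIC (μg/ml), comparing drug-containing wells with a growth-control well lacking antimicrobial. Testing followed the CLSI broth microdilution method, in duplicate, using two strains per organism group.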
With `Cl.N=C(N/N=C/c1ccc(Cl)cc1)N/N=C/c1ccc(Cl)cc1Cl` [NCL074], the “activity against MRSA among analogues” value was “greatest activity”.
The same measure, in the same setting: the value for `C/C(=N\NC(=N)N/N=C/c1ccc(Cl)cc1)c1ccc(Cl)cc1.Cl` [NCL081] was “greatest activity”; that for `Cl.N=C(N/N=C/c1ccc(Cl)cc1)N/N=C/c1ccccc1Cl` [NCL082] was “greatest activity”; that for `Cl.N=C(NN=Cc1ccc(Cl)cc1)NN=Cc1ccccc1F` [NCL088] was “greatest activity”.
The same measure, in the same setting: for `Cl.N=C(N/N=C/c1ccccc1O)N/N=C/c1ccccc1O` [NCL107] the value was “greatest activity”.
Same read-out and setting: the value for `CN(C)c1ccc(C=NNC(=N)NN=Cc2ccc(N(C)C)cc2)cc1.Cl` [NCL113] was “greatest activity”.

Staying with this assay, now noted: MRSA 1; 24 hours; duplicate lines per compound.
For `Cl.N=C(N/N=C/c1ccc(Cl)cc1)N/N=C/c1ccc(Cl)cc1Cl` [NCL074], the “MIC (μg/ml) at 24 hours, MRSA 1” value turned out to be 16 µg/mL.
For the compound `C/C(=N\NC(=N)N/N=C/c1ccc(Cl)cc1)c1ccc(Cl)cc1.Cl` [NCL081], the “MIC (μg/ml) at 24 hours, MRSA 1” value came to 4 µg/mL.
Same read-out and setting: for `Cl.N=C(N/N=C/c1ccc(Cl)cc1)N/N=C/c1ccccc1Cl` [NCL082] the value was 8 µg/mL and 4 µg/mL; for `Cl.N=C(NN=Cc1ccc(Cl)cc1)NN=Cc1ccccc1F` [NCL088], 16 µg/mL and 8 µg/mL.
Turning to `Cl.N=C(N/N=C/c1ccccc1O)N/N=C/c1ccccc1O` [NCL107], the “MIC (μg/ml) at 24 hours, MRSA 1” value worked out at 8 µg/mL.
Same read-out and setting: the value for `CN(C)c1ccc(C=NNC(=N)NN=Cc2ccc(N(C)C)cc2)cc1.Cl` [NCL113] was 16 µg/mL.

The same assay, now with this note: MRSA 2; 24 hours; duplicate lines per compound.
Consider `Cl.N=C(N/N=C/c1ccc(Cl)cc1)N/N=C/c1ccc(Cl)cc1Cl` [NCL074], for which the “MIC (μg/ml) at 24 hours, MRSA 2” value came out at 16 µg/mL.
Regarding `C/C(=N\NC(=N)N/N=C/c1ccc(Cl)cc1)c1ccc(Cl)cc1.Cl` [NCL081], the “MIC (μg/ml) at 24 hours, MRSA 2” value was 8 µg/mL and 4 µg/mL.
Still for that read-out and setting: the value for `Cl.N=C(N/N=C/c1ccc(Cl)cc1)N/N=C/c1ccccc1Cl` [NCL082] was 8 µg/mL.
On the same count and under the same terms, the value for `Cl.N=C(NN=Cc1ccc(Cl)cc1)NN=Cc1ccccc1F` [NCL088] was 8 µg/mL.
On the same count and under the same terms, for `Cl.N=C(N/N=C/c1ccccc1O)N/N=C/c1ccccc1O` [NCL107] the value was 16 µg/mL.
On to `CN(C)c1ccc(C=NNC(=N)NN=Cc2ccc(N(C)C)cc2)cc1.Cl` [NCL113], for which the “MIC (μg/ml) at 24 hours, MRSA 2” value was found to be 8 µg/mL.

Still in this assay, the particulars now being: bioassay ranking, MRSA.
The compound `Cl.N=C(N/N=C/c1ccc(Cl)cc1)N/N=C/c1ccc(Cl)cc1Cl` [NCL074] registered an MRSA of 16 µg/mL.
Same read-out and setting: the value for `C/C(=N\NC(=N)N/N=C/c1ccc(Cl)cc1)c1ccc(Cl)cc1.Cl` [NCL081] was 5 µg/mL.
In turn, `Cl.N=C(N/N=C/c1ccc(Cl)cc1)N/N=C/c1ccccc1Cl` [NCL082] returned an MRSA of 7 µg/mL.
Same read-out and setting: for `Cl.N=C(NN=Cc1ccc(Cl)cc1)NN=Cc1ccccc1F` [NCL088] the value was 10 µg/mL.
The same measure, in the same setting: for `Cl.N=C(N/N=C/c1ccccc1O)N/N=C/c1ccccc1O` [NCL107] the value was 12 µg/mL; for `CN(C)c1ccc(C=NNC(=N)NN=Cc2ccc(N(C)C)cc2)cc1.Cl` [NCL113], 12 µg/mL.

The subject of the next assay is VRE. The assay is described as above. It counts as cell-based, Enterococcus spp. Particulars: MIC testing, two VRE strains. The procedure, abridged:
as §1
`Cl.N=C(N/N=C/c1ccc(Cl)cc1)N/N=C/c1ccc(Cl)cc1Cl` [NCL074]: the “activity against VRE among analogues” value was “greatest activity”.
In the case of `C/C(=N\NC(=N)N/N=C/c1ccc(Cl)cc1)c1ccc(Cl)cc1.Cl` [NCL081], the “activity against VRE among analogues” value is “greatest activity”.
On the same count and under the same terms, for `Cl.N=C(N/N=C/c1ccc(Cl)cc1)N/N=C/c1ccccc1Cl` [NCL082] the value was “greatest activity”; for `Cl.N=C(NN=Cc1ccc(Cl)cc1)NN=Cc1ccccc1F` [NCL088], “greatest activity”.
As for `Cl.N=C(N/N=C/c1ccccc1O)N/N=C/c1ccccc1O` [NCL107], the “activity against VRE among analogues” value was “greatest activity”.
In the case of `CN(C)c1ccc(C=NNC(=N)NN=Cc2ccc(N(C)C)cc2)cc1.Cl` [NCL113], the “activity against VRE among analogues” value is listed as “greatest activity”.

Staying with this assay, now noted: VRE 1; 24 hours; duplicate lines per compound.
In the case of `Cl.N=C(N/N=C/c1ccc(Cl)cc1)N/N=C/c1ccc(Cl)cc1Cl` [NCL074], the “MIC (μg/ml) at 24 hours, VRE 1” value was 2 µg/mL and 1 µg/mL.
Same read-out and setting: for `C/C(=N\NC(=N)N/N=C/c1ccc(Cl)cc1)c1ccc(Cl)cc1.Cl` [NCL081] the value was 1 µg/mL; for `Cl.N=C(N/N=C/c1ccc(Cl)cc1)N/N=C/c1ccccc1Cl` [NCL082], 4 µg/mL; for `Cl.N=C(NN=Cc1ccc(Cl)cc1)NN=Cc1ccccc1F` [NCL088], 4 µg/mL.
As to `Cl.N=C(N/N=C/c1ccccc1O)N/N=C/c1ccccc1O` [NCL107], the “MIC (μg/ml) at 24 hours, VRE 1” value is 32 µg/mL.
The same measure, in the same setting: the value for `CN(C)c1ccc(C=NNC(=N)NN=Cc2ccc(N(C)C)cc2)cc1.Cl` [NCL113] was 8 µg/mL.

The assay is the same for the next values; noted with them: VRE 2; 24 hours; duplicate lines per compound.
Turning to `Cl.N=C(N/N=C/c1ccc(Cl)cc1)N/N=C/c1ccc(Cl)cc1Cl` [NCL074], the “MIC (μg/ml) at 24 hours, VRE 2” value is 8 µg/mL and 4 µg/mL.
As for `C/C(=N\NC(=N)N/N=C/c1ccc(Cl)cc1)c1ccc(Cl)cc1.Cl` [NCL081], the “MIC (μg/ml) at 24 hours, VRE 2” value amounted to 4 µg/mL.
The same measure, in the same setting: the value for `Cl.N=C(N/N=C/c1ccc(Cl)cc1)N/N=C/c1ccccc1Cl` [NCL082] was 2 µg/mL and 4 µg/mL; that for `Cl.N=C(NN=Cc1ccc(Cl)cc1)NN=Cc1ccccc1F` [NCL088] was 4 µg/mL; that for `Cl.N=C(N/N=C/c1ccccc1O)N/N=C/c1ccccc1O` [NCL107] was 128 µg/mL.
The same measure, in the same setting: the value for `CN(C)c1ccc(C=NNC(=N)NN=Cc2ccc(N(C)C)cc2)cc1.Cl` [NCL113] was 16 µg/mL.

The same assay, now with this note: bioassay ranking, VRE.
For `Cl.N=C(N/N=C/c1ccc(Cl)cc1)N/N=C/c1ccc(Cl)cc1Cl` [NCL074], the VRE was found to be 3.75 µg/mL.
Still for that read-out and setting: for `C/C(=N\NC(=N)N/N=C/c1ccc(Cl)cc1)c1ccc(Cl)cc1.Cl` [NCL081] the value was 2.5 µg/mL; for `Cl.N=C(N/N=C/c1ccc(Cl)cc1)N/N=C/c1ccccc1Cl` [NCL082], 3.5 µg/mL.
The same measure, in the same setting: for `Cl.N=C(NN=Cc1ccc(Cl)cc1)NN=Cc1ccccc1F` [NCL088] the value was 4 µg/mL.
Same read-out and setting: the value for `CN(C)c1ccc(C=NNC(=N)NN=Cc2ccc(N(C)C)cc2)cc1.Cl` [NCL113] was 12 µg/mL.

Tested on in a further assay: not listed separately
Description: Bioassay ranking of the analogues tested. Particulars: M + R (MRSA and VRE combined).
For the compound `Cl.N=C(N/N=C/c1ccc(Cl)cc1)N/N=C/c1ccc(Cl)cc1Cl` [NCL074], the “M + R” value is 9.875 µg/mL.
Regarding `C/C(=N\NC(=N)N/N=C/c1ccc(Cl)cc1)c1ccc(Cl)cc1.Cl` [NCL081], the “M + R” value was determined as 3.75 µg/mL.
The same measure, in the same setting: for `Cl.N=C(N/N=C/c1ccc(Cl)cc1)N/N=C/c1ccccc1Cl` [NCL082] the value was 5.25 µg/mL; for `Cl.N=C(NN=Cc1ccc(Cl)cc1)NN=Cc1ccccc1F` [NCL088], 7 µg/mL.
Consider `Cl.N=C(N/N=C/c1ccccc1O)N/N=C/c1ccccc1O` [NCL107], for which the “M + R” value came to 46 µg/mL.
Regarding `CN(C)c1ccc(C=NNC(=N)NN=Cc2ccc(N(C)C)cc2)cc1.Cl` [NCL113], the “M + R” value was determined as 12 µg/mL.

Another assay has as its system Pseudomonas aeruginosa. Description: Broth microdilution MIC, Example 7 (NCL812 and analogues). The class given is cell-based. The note with it: P. aeruginosa; 24 hours; duplicate lines per compound.
With `Cl.N=C(N/N=C/c1ccc(Cl)cc1)N/N=C/c1ccc(Cl)cc1Cl` [NCL074], the “MIC (μg/ml) at 24 hours, P. aeruginosa” value is more than 128 µg/mL.
Turning to `C/C(=N\NC(=N)N/N=C/c1ccc(Cl)cc1)c1ccc(Cl)cc1.Cl` [NCL081], the “MIC (μg/ml) at 24 hours, P. aeruginosa” value was more than 128 µg/mL.
Still for that read-out and setting: for `Cl.N=C(N/N=C/c1ccc(Cl)cc1)N/N=C/c1ccccc1Cl` [NCL082] the value was more than 128 µg/mL; for `Cl.N=C(NN=Cc1ccc(Cl)cc1)NN=Cc1ccccc1F` [NCL088], more than 128 µg/mL.
On the same count and under the same terms, for `Cl.N=C(N/N=C/c1ccccc1O)N/N=C/c1ccccc1O` [NCL107] the value was more than 128 µg/mL; for `CN(C)c1ccc(C=NNC(=N)NN=Cc2ccc(N(C)C)cc2)cc1.Cl` [NCL113], more than 128 µg/mL.
